In PMC11842024, “Reversible male contraception by targeted inhibition of serine/threonine kinase 33” (Science (New York, N.Y.), 2024):

Assays:
[1] = target: T1, CLK4 (Homo sapiens, UniProt Q9HAZ1); assay: LanthaScreen binding assay (ThermoFisher SelectScreen); set-up: purchased SelectScreen Services (ThermoFisher)
Excerpt: (§1) In vitro biochemical assays. Several small molecule assays were outsourced to SelectScreen Services (ThermoFisher) for STK33 and for off-target kinases (data sets are available on demand).
(§2) These assays are LanthaScreen (binding assay) and Z’-LYTE (activity assay). Dose-responses were done with at least 5 different concentrations in duplicates, and parameters were optimized by calculations described below and provided with standard errors.
(§3) Calculation of Kd values for kinase inhibitors that bind to the ATP pocket of a kinase from LanthaScreen binding data. DynaFit (71) was used to fit complex equilibria where a tracer is displaced by a dilution series of a kinase inhibitor. This method relies on the concentration of inhibitor, as well as the concentration of kinase and tracer, and Kd of the tracer. The latter three parameters are tabulated by ThermoFisher for each kinase in the LanthaScreen assay panel. […]

[2] = target: T2, RET (Homo sapiens, UniProt P07949); assay: Z'-LYTE activity assay (ThermoFisher SelectScreen); assay type: biochemical; set-up: purchased SelectScreen Services (ThermoFisher); details: [ATP] = Kmapp
T2 sequence (P07949 29-1114): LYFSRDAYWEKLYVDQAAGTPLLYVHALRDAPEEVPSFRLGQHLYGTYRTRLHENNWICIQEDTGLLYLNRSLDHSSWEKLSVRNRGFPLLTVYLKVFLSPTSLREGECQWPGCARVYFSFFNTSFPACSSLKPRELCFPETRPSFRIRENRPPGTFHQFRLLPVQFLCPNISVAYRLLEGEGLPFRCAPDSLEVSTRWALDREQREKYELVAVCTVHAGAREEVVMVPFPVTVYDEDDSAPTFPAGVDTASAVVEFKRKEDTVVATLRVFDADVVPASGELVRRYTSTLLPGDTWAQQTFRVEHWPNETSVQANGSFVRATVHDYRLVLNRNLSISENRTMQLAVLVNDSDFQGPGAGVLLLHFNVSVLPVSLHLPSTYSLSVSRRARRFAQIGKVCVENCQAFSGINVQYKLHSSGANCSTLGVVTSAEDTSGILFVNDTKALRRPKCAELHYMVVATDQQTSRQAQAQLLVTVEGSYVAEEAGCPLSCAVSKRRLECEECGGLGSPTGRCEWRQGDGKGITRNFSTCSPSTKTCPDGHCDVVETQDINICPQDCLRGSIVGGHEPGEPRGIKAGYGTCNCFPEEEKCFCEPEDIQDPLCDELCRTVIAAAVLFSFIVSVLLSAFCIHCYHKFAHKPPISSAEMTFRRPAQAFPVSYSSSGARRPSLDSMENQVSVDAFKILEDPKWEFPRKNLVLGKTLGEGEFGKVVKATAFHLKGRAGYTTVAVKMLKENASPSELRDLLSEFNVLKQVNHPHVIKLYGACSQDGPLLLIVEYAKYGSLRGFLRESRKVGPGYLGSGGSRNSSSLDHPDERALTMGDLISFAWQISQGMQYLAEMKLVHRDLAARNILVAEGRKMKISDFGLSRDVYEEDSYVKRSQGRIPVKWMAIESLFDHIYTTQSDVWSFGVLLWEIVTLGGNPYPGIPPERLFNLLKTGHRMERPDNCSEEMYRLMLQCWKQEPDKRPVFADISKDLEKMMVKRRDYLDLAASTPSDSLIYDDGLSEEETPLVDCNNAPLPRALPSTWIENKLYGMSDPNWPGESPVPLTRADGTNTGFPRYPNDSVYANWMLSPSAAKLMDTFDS
Excerpt: as §1
(§4) These assays are LanthaScreen (binding assay) and Z’-LYTE (activity assay). Dose-responses were done with at least 5 different concentrations in duplicates, and parameters were optimized by calculations described below and provided with standard errors. […]
(§5) Calculation of Ki values for kinase inhibitors from Z’-LYTE inhibition data. The Morrison equation with [ATP] = Kmapp for competitive inhibition (GraphPad Prism 7, San Diego, CA) was used to get Ki values. Since Kd and Ki values are defined the same way, in other words, Kd = [E] [I] / [EI] = Ki, Kd and Ki values can be compared. […]

[3] = target: T3, CLK1 (Homo sapiens, UniProt P49759); assay: Z'-LYTE activity assay (ThermoFisher SelectScreen); assay type: biochemical; set-up: purchased SelectScreen Services (ThermoFisher); details: [ATP] = Kmapp
T3 sequence (P49759 whole entry): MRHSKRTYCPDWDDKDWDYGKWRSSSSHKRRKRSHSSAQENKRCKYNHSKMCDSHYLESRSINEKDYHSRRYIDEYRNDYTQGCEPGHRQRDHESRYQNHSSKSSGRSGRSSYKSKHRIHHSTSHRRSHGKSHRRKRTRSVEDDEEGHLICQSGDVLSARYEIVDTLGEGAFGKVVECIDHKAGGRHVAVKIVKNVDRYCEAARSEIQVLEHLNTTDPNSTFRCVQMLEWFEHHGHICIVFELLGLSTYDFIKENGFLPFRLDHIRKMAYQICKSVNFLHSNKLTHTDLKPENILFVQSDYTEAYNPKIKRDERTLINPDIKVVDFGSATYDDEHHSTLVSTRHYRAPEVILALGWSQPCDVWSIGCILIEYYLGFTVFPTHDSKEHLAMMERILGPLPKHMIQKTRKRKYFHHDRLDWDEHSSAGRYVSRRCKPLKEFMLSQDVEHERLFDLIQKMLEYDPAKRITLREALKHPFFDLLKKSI
Excerpt: as §1, §4, §5

[4] = target: T4, CLK2 (Homo sapiens, UniProt P49760); assay: Z'-LYTE activity assay (ThermoFisher SelectScreen); assay type: biochemical; set-up: purchased SelectScreen Services (ThermoFisher); details: [ATP] = Kmapp
T4 sequence (P49760 whole entry): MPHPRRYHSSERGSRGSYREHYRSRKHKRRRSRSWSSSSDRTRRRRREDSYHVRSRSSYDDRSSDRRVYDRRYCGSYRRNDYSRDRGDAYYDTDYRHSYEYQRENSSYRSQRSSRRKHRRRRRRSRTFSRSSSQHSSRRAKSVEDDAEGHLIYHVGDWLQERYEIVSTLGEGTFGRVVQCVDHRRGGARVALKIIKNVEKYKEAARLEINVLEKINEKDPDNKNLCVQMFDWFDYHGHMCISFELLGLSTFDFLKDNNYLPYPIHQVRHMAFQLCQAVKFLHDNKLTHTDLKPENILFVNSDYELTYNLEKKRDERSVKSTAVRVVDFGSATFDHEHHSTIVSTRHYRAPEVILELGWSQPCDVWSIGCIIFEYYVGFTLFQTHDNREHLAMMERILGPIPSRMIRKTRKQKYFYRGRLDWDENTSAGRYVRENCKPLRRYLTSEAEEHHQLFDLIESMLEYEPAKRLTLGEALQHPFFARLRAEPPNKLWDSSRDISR
Excerpt: as §1, §4, §5

[5] = target: T2, RET; assay: NanoBRET target engagement intracellular kinase assay; assay type: cell-based; set-up: host or cells: HEK293 (HEK293T cultured); details: for IC50: HEK293 cells, 2 hours incubation; for Fold NanoBRET IC50 RET over STK33 (in parentheses): selectivity vs STK33
Experimental: (§6) NanoBRET Target Engagement intracellular kinase assay. HEK293T cells were cultured in […]
(§7) The cell line underwent authentication by short tandem repeat (STR) profiling at Cytogenetics and Cell Authentication Core (CCAC) at MD Anderson Cancer Center. NanoBRET Target Engagement intracellular kinase assay, K-10 assay (Cat. # N2641), K-9 assay (Cat. # N2631), transfection reagent FuGENE HD (Cat. # E2311), transfection carrier DNA (Cat. # E4881), NanoLuc-STK33 fusion vector (Cat. # NV2111), NanoLuc-RET fusion vector (Cat. # NV1951), NanoLuc-CLK1 fusion vector (Cat. # NV1131), NanoLuc-CLK2 fusion vector (Cat. # NV1141), and NanoLuc-CLK4 fusion vector (Cat. # NV1151) were purchased from Promega. The measurement of test compound engagement with cellular target protein was performed in a 384-well format according to manufacturer’s instructions. HEK293 cells were transiently transfected with NanoLuc (STK33, RET, CLK1, CLK2, and CLK4) fusion vectors. After 36 hours of transfection, cells were treated with a fixed concentration of tracer (recommended by Promega) followed by compounds (inhibitors) for 2 hours of incubation. To determine the test compound […]
(§8) 0.4 nM at a fixed tracer concentration. Staurosporine was measured in parallel as a positive control.
(§9) Freshly prepared NanoBRET Nano-Glo substrate plus extracellular NanoLuc inhibitor was then added to initiate the subsequent bioluminescence resonance energy transfer (BRET) measurements using a CLARIOstar Plus BMG LABTECH plate reader. Data analysis was done by measuring the ratio of acceptor emission to donor emission (BRET ratio) and normalized by subtracting no-tracer-control-background. IC50 values were obtained by nonlinear regression using a four-parameter equation in GraphPad Prism 7 (San Diego, CA).

[6] = target: T5, STK33 (Homo sapiens, UniProt Q9BYT3); assay: as above; assay type: cell-based; set-up: host or cells: HEK293 (HEK293T cultured); details: for IC50: HEK293 cells, 2 hours incubation
T5 sequence (Q9BYT3 whole entry): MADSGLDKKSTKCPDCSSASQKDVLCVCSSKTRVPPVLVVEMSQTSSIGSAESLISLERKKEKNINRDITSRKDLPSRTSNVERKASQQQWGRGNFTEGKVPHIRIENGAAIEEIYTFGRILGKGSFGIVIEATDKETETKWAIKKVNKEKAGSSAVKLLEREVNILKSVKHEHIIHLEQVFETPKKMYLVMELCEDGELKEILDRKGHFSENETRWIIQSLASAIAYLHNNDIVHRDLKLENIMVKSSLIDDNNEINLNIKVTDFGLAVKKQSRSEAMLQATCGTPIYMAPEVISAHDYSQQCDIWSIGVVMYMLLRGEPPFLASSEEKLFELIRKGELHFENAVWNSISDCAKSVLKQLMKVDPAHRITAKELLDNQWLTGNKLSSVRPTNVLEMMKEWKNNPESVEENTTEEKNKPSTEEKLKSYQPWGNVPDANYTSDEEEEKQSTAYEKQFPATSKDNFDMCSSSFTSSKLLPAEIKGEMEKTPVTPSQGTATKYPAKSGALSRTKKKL
Experimental: as §6, §7, §8, §9

[7] = target: T3, CLK1; assay: as above; assay type: cell-based; set-up: host or cells: HEK293 (HEK293T cultured); details: for IC50: HEK293 cells, 2 hours incubation; for Fold NanoBRET IC50 CLK1 over STK33 (in parentheses): selectivity vs STK33
Experimental: as §6, §7, §8, §9

[8] = target: T4, CLK2; assay: as above; assay type: cell-based; set-up: host or cells: HEK293 (HEK293T cultured); details: for IC50: HEK293 cells, 2 hours incubation; for Fold NanoBRET IC50 CLK2 over STK33 (in parentheses): selectivity vs STK33
Experimental: as §6, §7, §8, §9

[9] = target: T1, CLK4; assay: as above; assay type: cell-based; set-up: host or cells: HEK293 (HEK293T cultured); details: for IC50: HEK293 cells, 2 hours incubation; for Fold NanoBRET IC50 CLK4 over STK33 (in parentheses): selectivity vs STK33
Experimental: as §6, §7, §8, §9

[10] = Metabolic stability assay in liver microsomes (HLM); assay type: in vitro ADME, human; details: 2.0 µM, 0.5 mg protein/mL, NADPH, data >60 min is an extrapolated estimate; for half-life at 2 µM: human, liver microsomes, read-out: Metabolic stability HLM, t1/2
Experimental: (§10) Metabolic stability assay in liver microsomes. The stabilities of CDD-2110, CDD-2211, CDD-2212, CDD-2807, and CDD-3348 in liver microsomes with/without Uridine Diphosphate Glucuronic Acid (UDP-GA, a cofactor of UDP-glucuronosyltransferases) were performed and half-life was calculated as previously reported (36). Briefly, each CDD compound (2.0 μM) was incubated in the mouse or human liver microsomes (0.5 mg protein/mL) at 37°C in 1× PBS fortified with NADPH (1.0 mM) and with/without UDP-GA (2.5 mM). Alamethicin (25 µg/mL) as a pore forming agent was used for the glucuronidation (Table S2A). The samples were collected at specific time-points 0, 30, and 60 min in duplicate. The reactions were terminated by adding equivalent volume of ice-cold methanol (CH3OH) and vortexed. After centrifugation at 15000 g for 10 min, 3.0 μL of the supernatant was analyzed by Thermo TSQ Quantis MS coupled with a Thermo Vanquish UHPLC (San Jose, CA) equipped with a Luna C18 column (1 mm × 50 mm, 1.6 µm, Phenomenex, Torrance, CA). The column temperature was maintained at 40°C. CDD-2807 was monitored under the selected reaction monitoring (SRM) mode coupled with a positive electrospray ionization (ESI) source. The SRM ion pairs were 447→321 for CDD-2807.

[11] = Metabolic stability assay in liver microsomes (MLM); assay type: in vitro ADME, mouse; details: 2.0 µM, 0.5 mg protein/mL, NADPH, data >60 min is an extrapolated estimate; for half-life at 2 µM: mouse, liver microsomes, read-out: Metabolic stability MLM, t1/2
Experimental: as §10

[12] = target: T5, STK33; assay: LanthaScreen binding assay (ThermoFisher SelectScreen); set-up: purchased SelectScreen Services (ThermoFisher)
Excerpt: as §1, §2, §3
Since Kd and Ki values are defined the same way, in other words, Kd = [E] [I] / [EI] = Ki, Kd and Ki values can be compared. […]

T1 sequence (Q9HAZ1 whole entry): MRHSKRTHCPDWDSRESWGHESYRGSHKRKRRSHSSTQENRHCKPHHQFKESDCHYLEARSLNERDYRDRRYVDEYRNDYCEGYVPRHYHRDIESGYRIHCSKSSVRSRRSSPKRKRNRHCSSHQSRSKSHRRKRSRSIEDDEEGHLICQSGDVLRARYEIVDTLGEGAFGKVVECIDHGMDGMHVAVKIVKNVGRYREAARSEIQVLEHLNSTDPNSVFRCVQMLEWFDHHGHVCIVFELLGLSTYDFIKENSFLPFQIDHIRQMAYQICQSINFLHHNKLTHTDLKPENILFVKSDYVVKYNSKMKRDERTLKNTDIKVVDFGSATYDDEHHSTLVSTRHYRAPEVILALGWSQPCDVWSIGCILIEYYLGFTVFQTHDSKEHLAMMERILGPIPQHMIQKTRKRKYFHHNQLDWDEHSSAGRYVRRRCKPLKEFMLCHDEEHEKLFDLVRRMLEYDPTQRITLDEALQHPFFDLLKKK

CN(C)[C@H]1CCN(C(=O)c2ccc3[nH]nc(C#Cc4ccccc4-c4ccccc4)c3c2)C1 [CDD-2212]
Kd [1]: 21.5 ± 1 nM | Ki [2]: 2 ± 1.4 nM | Ki [3]: 507 ± 36 nM | Ki [4]: 54.8 ± 3 nM | IC50 [5]: 1090 nM | Fold NanoBRET IC50 RET over STK33 (in parentheses) [5]: 1.1 X | IC50 [6]: 999 nM | IC50 [7]: 3230 nM | Fold NanoBRET IC50 CLK1 over STK33 (in parentheses) [7]: 3 X | IC50 [8]: 1550 nM | Fold NanoBRET IC50 CLK2 over STK33 (in parentheses) [8]: 1.5 X | IC50 [9]: 5880 nM | Fold NanoBRET IC50 CLK4 over STK33 (in parentheses) [9]: 6 X | half-life at 2 µM [10]: 8 min | half-life at 2 µM [11]: 9 min | Kd [12]: 1.9 nM

ML281 [reference compound]
Kd [1]: > 1000 nM | Ki [2]: > 1000 nM | Ki [3]: > 1000 nM | Ki [4]: > 1000 nM

O=C(c1ccc2[nH]nc(C#Cc3ccccc3-c3ccccc3)c2c1)N1CC2(CCNCC2)C1 [Compound S7]
IC50 [6]: 168 nM | Metabolic stability HLM, t1/2 [10]: 235 min | Metabolic stability MLM, t1/2 [11]: 46 min

CNC(=O)C1CCN(C2CCN(C(=O)c3ccc4[nH]nc(C#Cc5ccccc5-c5ccccc5)c4c3)C2)CC1 (centres unmarked) [CDD-2110]
Kd [1]: 9.6 ± 1.2 nM | Ki [2]: 3.1 ± 0.3 nM | Ki [3]: 234 ± 18 nM | Ki [4]: 27 ± 6.6 nM | IC50 [5]: 746 nM | Fold NanoBRET IC50 RET over STK33 (in parentheses) [5]: 20 X | selectivity toward STK33 compared to CLK1, CLK2, CLK4, and RET [6]: > 10 fold | IC50 [6]: 38 nM | fold more potent than published STK33 inhibitors in cellular assays ([6]; vs compound 1, ML281, BRD8899): 20- to 310 fold | IC50 [7]: 1210 nM | Fold NanoBRET IC50 CLK1 over STK33 (in parentheses) [7]: 32 X | IC50 [8]: 917 nM | Fold NanoBRET IC50 CLK2 over STK33 (in parentheses) [8]: 24 X | IC50 [9]: 544 nM | Fold NanoBRET IC50 CLK4 over STK33 (in parentheses) [9]: 14 X | half-life at 2 µM [10]: 10 min | half-life at 2 µM [11]: 25 min | Kd [12]: 0.1 nM | fold more potent than published STK33 inhibitors in biochemical assays ([12]; vs compound 1, ML281, BRD8899): 12- to 400 fold

O=C(c1ccc2[nH]nc(C#Cc3ccccc3-c3ccccc3)c2c1)N1CCC(O)C1 (centres unmarked) [Compound S2]
IC50 [6]: 647 nM

O=C(c1ccc2[nH]nc(C#Cc3ccccc3-c3ccccc3)c2c1)N1CCC2(CCNCC2)C1 [Compound S5]
IC50 [6]: 1290 nM

CN(C)[C@@H]1CCN(C(=O)c2ccc3[nH]nc(C#Cc4ccccc4-c4ccccc4)c3c2)C1 [CDD-2211]
Kd [1]: 2.5 ± 0.2 nM | Ki [2]: 0.47 ± 0.05 nM | Ki [3]: 38.8 ± 5.5 nM | Ki [4]: 5.4 ± 0.4 nM | IC50 [5]: 78 nM | Fold NanoBRET IC50 RET over STK33 (in parentheses) [5]: 16 X | selectivity toward STK33 compared to CLK1, CLK2, CLK4, and RET [6]: > 10 fold | IC50 [6]: 5 nM | IC50 [7]: 115 nM | Fold NanoBRET IC50 CLK1 over STK33 (in parentheses) [7]: 23 X | IC50 [8]: 48 nM | Fold NanoBRET IC50 CLK2 over STK33 (in parentheses) [8]: 10 X | IC50 [9]: 187 nM | Fold NanoBRET IC50 CLK4 over STK33 (in parentheses) [9]: 37 X | half-life at 2 µM [10]: 10 min | half-life at 2 µM [11]: 7 min | Kd [12]: 0.018 nM

NC1CCN(C(=O)c2ccc3[nH]nc(C#Cc4ccccc4-c4ccccc4)c3c2)C1 (centres unmarked) [Compound S1]
IC50 [6]: 46 nM | Metabolic stability HLM, t1/2 [10]: 277 min | Metabolic stability MLM, t1/2 [11]: 42 min

CN(C)C1CCN(C(=O)c2ccc3[nH]nc(C#Cc4ccc(-c5ccccc5)cc4)c3c2)C1 (centres unmarked) [Compound S10]
IC50 [6]: 8710 nM | Kd [12]: 17.7 ± 0.7 nM

CN(C)C1CCN(C(=O)c2ccc3[nH]nc(C#Cc4cccc(-c5ccccc5)c4)c3c2)C1 (centres unmarked) [Compound S9]
IC50 [6]: 289 nM | Kd [12]: 9.9 ± 2.3 nM

O=C(c1ccc2[nH]nc(C#Cc3ccccc3-c3ccccc3)c2c1)N1CCC2(CCCNC2)C1 (centres unmarked) [Compound S4]
IC50 [6]: 517 nM

O=C(c1ccc2[nH]nc(C#Cc3ccccc3-c3ccccc3)c2c1)N1CC2(CCCCN2)C1 [Compound S6]
IC50 [6]: 236 nM

O=C(c1ccc2[nH]nc(C#Cc3ccccc3-c3ccccc3)c2c1)N1CCC2(CCCCN2)C1 (centres unmarked) [Compound S3]
IC50 [6]: 52 nM
